System: Hepatitis C replicon
Assay: HCV replicon assay (NPT ELISA readout) in Huh-7 replicon-containing cells
Assay type: cell-based, Hepatitis C virus
Conditions: Hepatitis C virus, 72 h; HCV replicon in Huh-7 cells, three days incubation
Outline: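 Huh-7 cells carrying a neo-containing HCV subgenomic replicon (NS3-NS5B) were plated overnight, then exposed to compound (generally 6 concentrations, 10 to 0.03 μM) for three days at 37 °C. Replication was read as NPT level by captured ELISA; interferon alpha served as positive control.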

`CO/N=C1\CN(C(=O)C[C@H]2CCCCC/C=C\[C@@H]3C[C@@]3(C(=O)NS(=O)(=O)C3CC3)NC(=O)[C@@H]3C[C@@H](Oc4cc(-c5ccccc5)nc5cc(OC)ccc45)CN3C2=O)CC1(C)CN` (stereo partly drawn) [Compound 110, (2R,6R,14aR,16aS,Z)-6-(2-((Z)-3-(aminomethyl)-4-(methoxyimino)-3-methylpyrrolidin-1-yl)-2-oxoethyl)-N-(cyclopropylsulfonyl)-2-(7-methoxy-2-phenylquinolin-4-yloxy)-5,16-dioxo-1,2,3,5,6,7,8,9,10,11, 13a,14,14a,15,16,16a-hexadecahydrocyclopropa [e]pyrrolo[1,2-a][1,4] diazacyclopentadecine-14a-carboxamide] showed an EC50 of under 1000 nM.
In the case of `COc1ccc2c(O[C@@H]3C[C@H]4C(=O)N[C@]5(C(=O)NS(=O)(=O)C6CC6)C[C@H]5/C=C\CCCCC[C@H](CC(=O)N5CC[C@H](C(C)(C)N)C5)C(=O)N4C3)cc(-c3ccccc3)nc2c1` [Compound 111, (2R,6R,14aR,16aS,Z)-6-(2-((S)-3-(2-aminopropan-2-yl)pyrrolidin-1-yl)-2-oxoethyl)-N-(cyclopropylsulfonyl)-2-(7-methoxy-2-phenylquinolin-4-yloxy)-5,16-dioxo-1,2,3,5,6,7,8,9,10,11, 13a,14,14a,15,16,16a-hexadecahydrocyclopropa [e]pyrrolo[1,2-a][1,4] diazacyclopentadecine-14a-carboxamide], the EC50 is reported as under 1000 nM.
Compound `O=C1N[C@]2(C(=O)NS(=O)(=O)C3CC3)C[C@H]2/C=C\CCCCC[C@H](CC(=O)N2CCCCC2)C(=O)N2C[C@H](OC(=O)N3CCc4ccccc4C3)C[C@@H]12` [Compound 112, (2R,6R,14aR, 16aS,Z)-14a-(cyclopropylsulfonyl-carbamoyl)-5,16-dioxo-6-(2-oxo-2-(piperidin-1-yl)ethyl)-1,2,3,5,6,7,8,9,10,11, 13a,14,14a,15,16,16a-hexadecahydrocyclopropa [e]pyrrolo[1,2-a][1,4] diazacyclopentadecin-2-yl 3,4-dihydroisoquinoline-2(1H)-carboxylate] has an EC50 of under 1000 nM.
For `O=C1N[C@]2(C(=O)NS(=O)(=O)C3CC3)C[C@H]2/C=C\CCCCC[C@H](CC(=O)N2CCCC(F)(F)C2)C(=O)N2C[C@H](OC(=O)N3CCc4ccccc4C3)C[C@@H]12` [Compound 113, (2R,6R,14aR, 16aS,Z)-14a-(cyclopropylsulfonyl-carbamoyl)-6-(2-(3,3-difluoropiperidin-1-yl)-2-oxoethyl)-5,16-dioxo-1,2,3,5,6,7,8,9,10,11, 13a,14,14a,15,16,16a-hexadecahydrocyclopropa [e]pyrrolo[1,2-a][1,4] diazacyclopentadecin-2-yl 3,4-dihydroisoquinoline-2(1H)-carboxylate], the EC50 was under 1000 nM.
`O=C1N[C@]2(C(=O)NS(=O)(=O)C3CC3)C[C@H]2/C=C\CCCCC[C@H](CC(=O)N2CCC(F)(F)C2)C(=O)N2C[C@H](OC(=O)N3CCc4ccccc4C3)C[C@@H]12` [Compound 114, (2R,6R,14aR, 16aS,Z)-14a-(cyclopropylsulfonyl-carbamoyl)-6-(2-(3,3-difluoropyrrolidin-1-yl)-2-oxoethyl)-5,16-dioxo-1,2,3,5,6,7,8,9,10,11, 13a,14,14a,15,16,16a-hexadecahydrocyclopropa [e]pyrrolo[1,2-a][1,4] diazacyclopentadecin-2-yl 3,4-dihydroisoquinoline-2(1H)-carboxylate] gave an EC50 of under 1000 nM.
`O=C1N[C@]2(C(=O)NS(=O)(=O)C3CC3)CC2/C=C\CCCCC[C@H](CC(=O)N2CCC(C(F)(F)F)CC2)C(=O)N2C[C@H](OC(=O)N3CCc4ccccc4C3)C[C@@H]12` (stereo partly drawn) [Compound 115, (2R,6R,14aR, 16aS,Z)-14a-(cyclopropylsulfonyl-carbamoyl)-5,16-dioxo-6-(2-oxo-2-(4-(trifluoromethyl)piperidin-1-yl)ethyl)-1,2,3,5,6,7,8,9,10,11, 13a,14,14a,15,16,16a-hexadecahydrocyclopropa [e]pyrrolo[1,2-a][1,4] diazacyclopentadecin-2-yl 3,4-dihydroisoquinoline-2(1H)-carboxylate] showed an EC50 of under 1000 nM.

Reference: patent publication US8697641B2, “4-amino-4-oxobutanoyl peptide cyclic analogues, inhibitors of viral replication” (Achillion Pharmaceuticals, Inc., priority 2008, dated 2014)
